Here are results for three compounds from patent EP0017970A1, “Novel beta-lactam derivatives and process for production thereof” (SANRAKU-OCEAN CO., LTD., priority 1979, dated 1980).

Values after ≈ are worked out from the molar mass of the structure shown. Structures can show the parent of a compound that is named as a salt.

One series concerns Alcaligenes faecalis A 1. The series is described as follows: MIC, agar dilution assay. It is filed as cell-based. As to conditions: 35°C for 20 hours. How it is done:
(§1) The antibiotic activities shown in Tables 1-1 to 1-9 above were determined in the following manner. The minimum inhibitory concentrations of the compounds of formula (VI-b) in Tables I-1 to 1-8 and the known compounds in Table 1-9 on the various microorganisms shown in the above tables were measured by an agar dilution assay method using a brain heart infusion agar medium "Difco" (a product of Difco Laboratories Inc.). A sample of the test compound was dissolved in sterile distilled water and diluted to prepare a twofold dilution series of the compound solution. In a betri dish of 9 cm in diameter, 1 ml of the compound solution was added to 9 ml of a molten sterile heart infusion agar medium (Difco Laboratories Inc.) at. about 60°C to prepare an agar plate containing the compound. An overnight culture of each test organism indicated in the above table, which was prepared by stationary cultivation in trypto-soy broth (Eiken Chemi. Co., Ltd.) at 35°C for 18 to 20 hours, was diluted with the trypto-soy broth to give approximately 10^8 cells/ml and the diluted inoculum was inoculated in the agar plate. After cultivating the plate at 35°C for 20 hours, the growth of the organism was observed. The minimum concentration of the compound at which no growth of the microorganism was noted was determined, and defined as the minimum inhibitory concentration of the test compound.
For orientation: In agar dilution, organisms are placed on agar that contains the substance at set levels.

Series [1] concerns Klebsiella pneumoniae K-13. The series is described as follows: MIC, agar dilution assay. It is filed as cell-based. Particulars: K13, 35°C for 20 hours, read-out: Antibiotic Activity minimum inhibitory concentration. On the procedure:
as §1

Series [2] concerns Staphylococcus aureus Russell. The series is described as follows: MIC, agar dilution assay. Format: cell-based. Particulars: 35°C for 20 hours. On the procedure: as §1
The subject of a further series is Providencia sp. P8. Description: MIC, agar dilution assay. Format: cell-based. As to conditions: 35°C for 20 hours. On the procedure: as §1
Series [3] has as its system Enterobacter aerogenes E19. The series is described as follows: MIC, agar dilution assay. Format: cell-based. As to conditions: 35°C for 20 hours. On the procedure: as §1
Series [4] concerns Pseudomonas aeruginosa NCTC10490. The series is described as follows: MIC, agar dilution assay. It is filed as cell-based. Particulars: 35°C for 20 hours, read-out: Antibiotic Activity minimum inhibitory concentration. How it is done: as §1
The next series relates to Sarcina lutea. The series is described as follows: MIC, agar dilution assay. Format: cell-based. As to conditions: 35°C for 20 hours. On the procedure: as §1
In a further series the test system is Proteus sp. P22. Description: MIC, agar dilution assay. Format: cell-based. Particulars: 35°C for 20 hours, read-out: Antibiotic Activity minimum inhibitory concentration. How it is done:
as §1

The test system of series [5] is Pseudomonas aeruginosa IFO3445. The series is described as follows: MIC, agar dilution assay. Format: cell-based. Particulars: 35°C for 20 hours, read-out: Antibiotic Activity minimum inhibitory concentration. How it is done:
as §1

Series [6] deals with Staphylococcus epidermidis. The series is described as follows: MIC, agar dilution assay. It is filed as cell-based. As to conditions: 35°C for 20 hours. How it is done: as §1
The next series relates to Serratia marcescens T55. Description: MIC, agar dilution assay. It is filed as cell-based. As to conditions: 35°C for 20 hours. On the procedure:
as §1

In series [7] the test system is Bacillus subtilis ATCC 6633. Description: MIC, agar dilution assay. Format: cell-based. As to conditions: 35°C for 20 hours. On the procedure: as §1
The subject of a further series is Serratia marcescens S18. The series is described as follows: MIC, agar dilution assay. It is filed as cell-based. Particulars: 35°C for 20 hours; for MIC: Serratia marcescens, S18, 20 h, read-out: Antibiotic Activity minimum inhibitory concentration. How it is done:
as §1

For series [8], the system named is Staphylococcus aureus Smith. Description: MIC, agar dilution assay. Format: cell-based. As to conditions: 35°C for 20 hours. How it is done:
as §1

The next series concerns Proteus vulgaris GN76. The series is described as follows: MIC, agar dilution assay. Format: cell-based. As to conditions: 35°C for 20 hours, read-out: Antibiotic Activity minimum inhibitory concentration. On the procedure:
as §1

In series [9] the test system is Comamonas terrigena B-996. Description: MIC, agar dilution assay. It is filed as cell-based. As to conditions: 35°C for 20 hours; for MIC: Comamonas terrigena, B996, 20 h, read-out: Antibiotic Activity minimum inhibitory concentration. On the procedure:
as §1

Series [10] concerns Staphylococcus aureus FDA 209P. The series is described as follows: MIC, agar dilution assay. Format: cell-based. As to conditions: 35°C for 20 hours. How it is done: as §1
For another series, the system named is Escherichia coli K-12. Description: MIC, agar dilution assay. Format: cell-based. As to conditions: 35°C for 20 hours. On the procedure:
as §1

The next series concerns Enterobacter sp. E8. Description: MIC, agar dilution assay. It is filed as cell-based. Particulars: 35°C for 20 hours. How it is done: as §1
A further series relates to Proteus rettgeri P7. The series is described as follows: MIC, agar dilution assay. Format: cell-based. Particulars: 35°C for 20 hours. On the procedure:
as §1

A short description of series [11]: Reaction with hydroxylamine, loss of UV absorbance. It is filed as physicochemical. Particulars: about 20 µg/ml, hydroxylamine 10 mM, pH 7.5, 22°C for 30 minutes. How it is done: An aqueous solution of hydroxylamine having a pH of 7.5 is added to a solution of the above substance in deionized water so that the concentration of the antibiotic PS-3 to about 20 µg/ml and the concentration of hydroxylamine to 10 mM. When the mixed solution is allowed to stand at 22°C for 30 minutes, about 93% of its absorbance at 300.0 nm disappears.

Series [12] in a line: Solubility (physical and chemical properties). It is filed as physicochemical. On the procedure: The resulting powder was dissolved in 1 ml of a phosphate buffer (M/100, pH 8.4), and charged onto a column (1.1 x 90 cm) of Sephadex G-10 (a product of Pharmacia Fine Chemicals, Co.), and developed with the same buffer. The active fractions were collected by measuring their ultraviolet absorptions (λ300 nm). These fractions were adsorbed to a column (1.1 x 20 cm) of QAE Sephadex A-25 equilibrated with phosphate buffer (M/100, pH 8.4), and the column was eluted with 200 ml of phosphate buffer (M/100, pH 8.4) having a sodium chloride concentration linearly varying from 0 to O.lM by a concentration gradient method. The ultraviolet absorption (X300 nm) of each of the fractions was measured, and the active fractions were collected. Sodium chloride was added to the active fractions so that the concentration of sodium chloride reached 3% (w/v). The mixture was adsorbed to a column (1.1 x 20 cm) of Diaion HP-20AG (200 - 400 mesh), and eluted with water. The eluates were lyophilized to afford 5 mg of the sodium salt of PS-3 as a white dry powder. The physical and chemical properties of the product were as follows: • 1) Color Colorless • 2) Solubility

For another series, the system named is Escherichia coli RGN 823. Description: MIC, agar dilution assay. It is filed as cell-based. As to conditions: RGN823, 20 h, 35°C for 20 hours, read-out: Antibiotic Activity minimum inhibitory concentration. How it is done: as §1
A further series concerns Proteus mirabilis P6. The series is described as follows: MIC, agar dilution assay. It is filed as cell-based. Particulars: P6, 20 h, 35°C for 20 hours, read-out: Antibiotic Activity minimum inhibitory concentration. On the procedure: as §1
A further series deals with Enterobacter cloacae 45. The series is described as follows: MIC, agar dilution assay. Format: cell-based. As to conditions: Enterobacter cloacae, 45, 20 h, 35°C for 20 hours, read-out: Antibiotic Activity minimum inhibitory concentration. On the procedure:
as §1

Series [13] has as its system Citrobacter freundii GN 346. The series is described as follows: MIC, agar dilution assay. It is filed as cell-based. Particulars: GN346, 20 h, 35°C for 20 hours, read-out: Antibiotic Activity minimum inhibitory concentration. On the procedure:
as §1

Where [14] appears, read: Staphylococcus aureus, 20 h, read-out: Antibiotic Activity minimum inhibitory concentration.

Take `CC(O)[C@H]1C(=O)N2C(C(=O)O)=C(Sc3ccncc3)C[C@H]12` (relative stereo) [Table I-1 R1=-OH*]: the “Antibiotic Activity minimum inhibitory concentration” value in the series with Alcaligenes faecalis A 1 was below 0.007 µg/mL; in series [2], below 0.007 µg/mL; with Providencia sp. P8 it was 0.20 µg/mL; in series [3], 1.56 µg/mL; with Sarcina lutea, below 0.007 µg/mL; in [6] it was below 0.007 µg/mL. Besides, the “Antibiotic Activity minimum inhibitory concentration” value with Serratia marcescens T55 is 25 µg/mL; in series [7] it was below 0.007 µg/mL; with Serratia marcescens S18 it was 50 µg/mL; in [8] it was below 0.007 µg/mL; in series [9] it was below 0.007 µg/mL; in series [10], below 0.007 µg/mL. The “Antibiotic Activity minimum inhibitory concentration” value in the series on Escherichia coli K-12 turned out to be 0.05 µg/mL; in the series on Enterobacter sp. E8 it was 0.025 µg/mL; with Proteus rettgeri P7, 0.78 µg/mL. The MIC came to 25 µg/mL (≈ 81.6 µM) in series [1]; 1.56 µg/mL (≈ 5.09 µM) in [4]; 50 µg/mL (≈ 163 µM) in the series on Proteus sp. P22; 1.56 µg/mL (≈ 5.09 µM) in series [5]; 100 µg/mL (≈ 326 µM) in the series on Serratia marcescens S18; 50 µg/mL (≈ 163 µM) in the series on Proteus vulgaris GN76. The MIC in [9] came to 0.013 µg/mL (≈ 0.0424 µM).

`CC(=O)NCCSC1=C(C(=O)O)N2C(=O)C(C(C)O)C2C1` (stereo not shown) [PS-3 sodium salt, 3-(2-acetamidoethylthio)-6-(1-hydroxyethyl)-7-oxo-1-azabicyclo[3.2.0]hept-2-ene-2-carboxylic acid]: the “absorbance at 300.0 nm that disappears” value in [11] is recorded as “about 93%”. In addition, the Solubility entry in series [12] (in acetone) was “substantially insoluble”; in series [12] (in water), “Readily soluble”.

As to `CC(C)C1C(=O)N2C(C(=O)O)=C(Sc3ccncc3)CC12` (stereo not shown) [Table I-1 R1=-CH3], the MIC in the series with Alcaligenes faecalis A 1 (Alcaligenes faecalis, A1, 20 h, read-out: Antibiotic Activity minimum inhibitory concentration) was 0.013 µg/mL (≈ 0.0427 µM); in series [1], 25 µg/mL (≈ 82.1 µM); in [2] (setting [14]), 0.013 µg/mL (≈ 0.0427 µM); with Escherichia coli RGN 823 it was 12.5 µg/mL (≈ 41.1 µM); in the series with Providencia sp. P8 (Providencia, SP.P8, 20 h, read-out: Antibiotic Activity minimum inhibitory concentration) it was 3.13 µg/mL (≈ 10.3 µM); in series [3] (Klebsiella aerogenes, E19, 20 h, read-out: Antibiotic Activity minimum inhibitory concentration) it was 12.5 µg/mL (≈ 41.1 µM). The MIC in the series on Proteus mirabilis P6 amounted to 3.13 µg/mL (≈ 10.3 µM); in series [4] it was 1.56 µg/mL (≈ 5.13 µM); with Sarcina lutea (Micrococcus luteus, 20 h, read-out: Antibiotic Activity minimum inhibitory concentration) it was 0.013 µg/mL (≈ 0.0427 µM); with Proteus sp. P22 it was 50 µg/mL (≈ 164 µM); in series [5], 1.56 µg/mL (≈ 5.13 µM); in [6] (20 h, read-out: Antibiotic Activity minimum inhibitory concentration), 0.013 µg/mL (≈ 0.0427 µM). For the same compound, the MIC was 50 µg/mL (≈ 164 µM) with Enterobacter cloacae 45; 100 µg/mL (≈ 329 µM) in the series on Serratia marcescens T55 (Serratia marcescens, T55, 20 h, read-out: Antibiotic Activity minimum inhibitory concentration); 0.013 µg/mL (≈ 0.0427 µM) in series [7] (Bacillus subtilis, ATCC6633, 20 h, read-out: Antibiotic Activity minimum inhibitory concentration); 50 µg/mL (≈ 164 µM) in series [13]; 50 µg/mL (≈ 164 µM) in the series with Serratia marcescens S18; 0.013 µg/mL (≈ 0.0427 µM) in series [8] (setting [14]). Moreover, the MIC in the series on Proteus vulgaris GN76 came out at 50 µg/mL (≈ 164 µM); in [9], 0.007 µg/mL (≈ 0.023 µM); in series [10] (Staphylococcus aureus, FDA209P, 20 h, read-out: Antibiotic Activity minimum inhibitory concentration), 0.007 µg/mL (≈ 0.023 µM); with Escherichia coli K-12 (Escherichia coli, K12, 20 h, read-out: Antibiotic Activity minimum inhibitory concentration), 3.13 µg/mL (≈ 10.3 µM); in the series with Enterobacter sp. E8 (Enterobacter, SP.E8, 20 h, read-out: Antibiotic Activity minimum inhibitory concentration) it was 1.56 µg/mL (≈ 5.13 µM); in the series with Proteus rettgeri P7 (Providencia rettgeri, P7, 20 h, read-out: Antibiotic Activity minimum inhibitory concentration), 1.56 µg/mL (≈ 5.13 µM).
